Reference: patent US6703418B2, “Appetite stimulation and induction of weight gain in patients suffering from symptomatic HIV infection” (Unimed Pharmaceuticals, Inc., priority 1991, dated 2004)

Assays:
[1] = cancer patients, open study; cited from earlier work
[2] = advanced cancer patients on chemotherapy, versus those not receiving it; cited from earlier work
[3] = oral; cancer chemotherapy patients; crossover; cited from earlier work
[4] = Example I: ten symptomatic HIV patients treated with delta-9-tetrahydrocannabinol as dronabinol, weight change; type: in vivo, human
Protocol: Soft gelatin capsules were filled with delta-9-tetrahydrocannabinol in sesame oil (dronabinol). Capsules were filled with 2.5 mg delta-9-tetrahydrocannabinol per capsule or 5 mg delta-9-tetrahydrocannabinol per capsule.
Ten symptomatic HIV patients were treated with delta-9-tetrahydrocannabinol. […] The infectious complications which they had represent the spectrum of those usually seen in a symptomatic HIV-infected population.
Most of the patients had received or were on antiviral therapy, primarily zidovudine (azidothymidine). Two had previously received and one was receiving megesterol acetate as well. Patients received delta-9-tetrahydrocannabinol as dronabinol (delta-9-tetrahydrocannabinol in sesame oil in soft gelatin capsules), usually at a dose of 2.5 mg, for one to five months. Treatment continued for most of the patients at the time of this analysis. The dose varied. The patients were instructed to take medication up to four times daily as needed; many took it somewhat less often.
Initially, patients were losing a median of 0.93 kg/mo. On therapy, they gained 0.54 kg/mo. The median difference on versus pre-therapy was 1.92 kg/mo.

[5] = Example II: prospective dose-ranging study of dronabinol in patients with symptomatic HIV infection, weight change and side effects; type: in vivo, human
Protocol: In a prospective, dose-ranging study, 23 patients with symptomatic HIV infection were treated with dronabinol at a dose of 2.5 mg twice daily to 5.0 mg three times daily. Of these, 13 completed approximately one month on therapy.
At a dose which appears optimal, seven of eight patients completed one month treatment. […] Most of those patients who did experience side effects found them tolerable. […] The median rate of weight loss prior to therapy was 1.62 kg/mo; on therapy, the median weight gain was 1.56 kg/mo. The median improvement in the rate of weight change was 3.06 kg/mo, or approximately 1.5 lbs/wk.

[6] = children and adolescents 6-19 years of age; cited from earlier work
[7] = cancer chemotherapy patients; compared with prochlorperazine; cited from earlier work

CCCCCc1cc(O)c2c(c1)OC(C)(C)[C@@H]1CCC(C)=C[C@@H]21 [delta-9-tetrahydrocannabinol]
appetite [1]: appetite increases
rate of weight loss [1]: lessening of the rate of weight loss
weight maintenance [2]: maintained their weight better
subjects reporting an increased food intake [3]: 50%
number of patients who gained weight ([4]; of ten symptomatic HIV patients): Seven patients gained weight
number of patients with a decrease in weight loss ([4]; of ten symptomatic HIV patients, besides those who gained weight): two others had a decrease in weight loss
median difference in rate of weight change, on versus pre-therapy ([4]; ten symptomatic HIV patients, usually 2.5 mg oral, one to five months): 1.92 kg/mo
median weight gain on therapy ([4]; ten symptomatic HIV patients, usually 2.5 mg oral, up to four times daily as needed, one to five months, pre-therapy median loss 0.93 kg/mo): 0.54 kg/mo
number of patients who gained weight ([5]; all doses, 2.5 mg twice daily to 5.0 mg three times daily, of 13 patients completing about one month on therapy): seven gained weight
side effects ([5]; dose which appears optimal): most patients did not experience side effects
median improvement in the rate of weight change ([5]; dose which appears optimal, converted from kg/mo): approximately 1.5 lbs/wk
number of patients who gained weight ([5]; dose which appears optimal, of seven patients completing one month): five of the seven patients gained weight
median improvement in the rate of weight change ([5]; dose which appears optimal, on therapy versus prior to therapy): 3.06 kg/mo
median weight gain on therapy ([5]; dose which appears optimal, pre-therapy median loss 1.62 kg/mo): 1.56 kg/mo
appetite stimulating effect [6]: Results suggestive of an appetite stimulating effect
reported hunger [7]: reported feeling more hungry than patients on prochlorperazine
